“Also recorded” adds a separate entry of the source.
Assays:
HIB-1B adipocytes = assay: Secretion assay with brefeldin A in differentiated HIB-1B adipocytes (Western blot); assay type: cell-based, mouse; conditions: BFA 0.5 ug/ml, 12 hours, differentiated HIB-1B adipocytes (day 8)
Description: HIB-1B cells expressing Nampt-FLAG, Dhfr-FLAG, and Ppl-FLAG were differentiated to mature adipocytes (day 8) in 10-cm dishes, and their cell extracts were collected and immunoprecipitated as described above. Culture supernatant (˜8 ml) were collected and immunoprecipitated overnight at 4° C. with anti-FLAG antibody-conjugated beads, washed twice with PBS, and analyzed by Western Blot with rabbit polyclonal anti-FLAG antibody (Sigma, MO).
Brefeldin A (BFA), a potent inhibitor of the classical secretory pathway, was added to examine if Nampt-FLAG® is secreted through the ER-Golgi system. Fully differentiated HIB-1B adipocytes (day 8) were treated with BFA (0.5 ug/ml, Sigma, MO) for 12 hours, and cell extracts and culture supernatants were collected and analyzed as described above.

[1] = tested on: Chinese hamster ovary (CHO) cells; assay: Secretion assay with brefeldin A in transfected CHO cells (Western blot); assay type: cell-based; conditions: BFA-treated transfected CHO cells
Description: Cell extracts and culture supernatants were collected 48 hours after transfection, and subjected to immunoprecipitation with anti-FLAG® antibody-conjugated beads as described above, and analyzed by Western Blot with rabbit polyclonal anti-FLAG® antibody (Sigma, MO). Cells were also treated with BFA as described above.

[2] = tested on: mouse mammary carcinoma model; conditions: eight intraperitoneal injections, 25 mg/kg per injection, 12-hour interval; Muruganandham et al. 2005; cited from earlier work
C57BL/6 mice = assay: Blood glucose levels after intraperitoneal injection in fasted C57BL/6 mice; assay type: in vivo, mouse; conditions: for effect on blood glucose levels at lower dose: 50 mg/kg intraperitoneal, compared with 500 mg/kg; for blood glucose levels: 4-hr fast, 0-120 min after injection
Description: In this Example, five adult mice (C57BL/6; male; 3-4 months of age) were subjected to a 4-hr fast followed by intraperitoneal injection (500 mg/kg; 50 mg/kg) of nicotinamide, nicotinamide mononucleotide (NMN), or nicotinamide adenine dinucleotide (NAD). A control group of five fasted mice ([…]) were injected with PBS.
Blood glucose levels were measured from tail vein blood samples with an Accu-Chek glucometer (Roche Diagnostics) at 0, 15, 30, 60 and 120 min after injection.

Nampt^+/− mice = assay: Intraperitoneal glucose tolerance test (IPGTT) after NMN administration in Nampt+/- mice; assay type: in vivo, mouse
Description: Intraperitoneal glucose tolerance tests (IPGTTs) were conducted with a does of 3 g dextrose/kg body weight on Nampt^+/− and Nampt^+/+ siblings. For the IPGTTs, after mice were injected with PBS or NMN (500 mg/kg body weight) and fasted for 12-14 hours, dextrose (3 g/kg body weight) was injected intraperitoneally, and blood glucose levels were measured at 0, 15, 30, 60, and 120 min after injection. Plasma was also collected at 0 and 30 min time points after glucose injection and submitted for insulin measurements to the Washington University RIA Core facility. For the ITTs, after female mice were fasted for 4 hours, human insulin (0.75 U/kg body weight) (Lilly) was injected intraperitoneally to these mice, and blood glucose levels were measured at 0, 15, 30, 45, and 60min after insulin injection.
If the NAD biosynthetic activity of Nampt is responsible for the phenotypes observed in Nampt^+/− mice, the administration of NMN, a product of the Nampt enzymatic reaction, should be able to correct their problems. To test this possibility, the same Nampt^+/− mice that were used for IPGTTs were injected with NMN at a dose of 500 mg/kg body weight intraperitoneally ˜14 hrs prior to IPGTTs. As a control, PBS was injected to the mice ˜14 hrs before conducting previous IPGTTs. […] Blood glucose levels were monitored with a glucometer at 0, 30, and 60 min time points after injection.

B6 mice = assay: Toxicity of NMN dose in B6 mice; assay type: in vivo, mouse; conditions: NMN 500 mg/kg body weight
From the text: Therefore, it will be of great interest to examine whether NMN administration also alleviates the effects of Nampt haplodeficiency in HFD-fed Nampt^+/− mice and even improves the symptoms in HFD-fed Nampt^+/+ mice. […] NMN administration causes an acute increase in blood glucose within 2 hrs, probably due to the rapid release of calcium and eicosanoid in the liver (Broetto-Biazon et al., Eur. J. Pharmacol., (2004) 484, 291-301). Therefore, physiological tests will be conducted ˜14 hrs after NMN injection, as described in Example 18.

NIH3T3 cells = assay: Total cellular NAD levels in NIH3T3 cells by HPLC; assay type: cell-based, mouse; conditions: addition of 5 mM nicotinamide to the medium (otherwise 33 μM)
Description: Total cellular levels of NAD was measured in the NIH3T3 cell lines overexpressing the untagged enzymes. High performance liquid chromatography was used to measure NAD (Neubert et al., Biochim. Biophys. Acta., (1964) 92, 610-612; Emanuelli et al., J. Chromatogr., (1996) B. 676, 13-18). Briefly, 5×10^5 cells were plated in 6 cm dishes and harvested 48 h later in 800 μl of ice-cold PBS. Cells were then spun down and lysed with 300 μl of 1M HClO4 on ice for 10 min. Lysates were cleared by centrifugating at 4° C. at 18,000 g for 5 minutes. Cleared lysates (240 μl) were neutralized by adding 80 μl of 3M K2CO3 and incubating on ice for 10 minutes. After centrifuging for 10 min, 100 μl of the supernatant were mixed with 400 μl of Buffer A and loaded onto the column. The HPLC was run at a flow rate of 1 ml/min with 100% Buffer A from 0 to 5 min, a linear gradient to 95% Buffer A and 5% Buffer B (100% methanol) from 5 to 6 min, 95% Buffer A and 5% Buffer B from 6 to 11 min, a linear gradient to 85% Buffer A and 15% Buffer B from 11 to 13 min, 85% Buffer A and 15% Buffer B from 13 to 23 min, and a linear gradient to 100% Buffer A from 23 to 24 min. NAD was eluted as a sharp peak at 22 min. The amount of NAD was quantitated based on the peak area compared to a standard curve.

With C[C@H]1CCC/C=C/[C@@H]2C[C@H](O)C[C@H]2[C@H](O)/C=C/C(=O)O1 [BFA, Brefeldin A] the “eNampt levels in supernatant (extracellular Nampt secretion)” value (HIB-1B adipocytes) was “not affected; also recorded: not inhibited”, the “secretion of Prl-FLAG” value (HIB-1B adipocytes) was “significantly inhibited” and the “secretion of Prl-FLAG” value (HIB-1B adipocytes; listed as brefeldin A) was “inhibited”. For the same compound, the “secretion of Prl-FLAG” value [1] was “significantly inhibited” and the “secretion of extracellular Nampt” value [1] was “unaffected”.
For O=C(/C=C/c1cccnc1)NCCCCC1CCN(C(=O)c2ccccc2)CC1 [FK866], the “inhibition of NAD biosynthesis in vivo” value [2] is given as “effective to inhibit NAD biosynthesis” and the toxicity [2] is given as “without any obvious toxicity”.
For NC(=O)c1ccc[n+]([C@@H]2O[C@H](COP(=O)([O-])OP(=O)(O)OC[C@H]3O[C@@H](n4cnc5c(N)ncnc54)[C@H](O)[C@@H]3O)[C@@H](O)[C@H]2O)c1 [NAD, Nicotinamide adenine dinucleotide], the “effect on blood glucose levels at lower dose” value (“effect … at lower dose” for short) (C57BL/6 mice) was “weaker”, the blood glucose levels (C57BL/6 mice; 500 mg/kg intraperitoneal) was “significantly increased” and the “kinetics of glucose increase” value (C57BL/6 mice; 500 mg/kg intraperitoneal, comparison between compounds) was “much more pronounced and long-lasting effect”.
For NC(=O)c1ccc[n+]([C@@H]2O[C@H](COP(=O)([O-])O)[C@@H](O)[C@H]2O)c1 [NMN, Nicotinamide mononucleotide], the “effect … at lower dose” value (C57BL/6 mice) was “weaker”, the blood glucose levels (C57BL/6 mice; 500 mg/kg intraperitoneal) was “significantly increased” and the “time within which the acute increase in blood glucose occurs after administration” value (C57BL/6 mice; NMN administration) was no more than 2 h. The “glucose tolerance in IPGTT” value (Nampt^+/− mice; NMN 500 mg/kg intraperitoneally ~14 hrs prior to IPGTT, Nampt+/- mice compared to Nampt+/+) was “no longer showed impaired glucose tolerance; also recorded: corrected impaired glucose tolerance; also recorded: can correct”, the “glucose-stimulated insulin secretion (plasma insulin) in IPGTT” value (Nampt^+/− mice; NMN 500 mg/kg intraperitoneally ~14 hrs prior, 30 min after glucose injection, Nampt+/- mice) was “robust insulin secretion similar to that in Nampt^+/+ mice; also recorded: corrected” and the toxicity (B6 mice) was “not cause any obvious toxicity”.
With NC(=O)c1cccnc1 [nicotinamide, 3-pyridinecarboxamide] the “total cellular NAD level” value (NIH3T3 cells) was “did not increase NAD”, the “effect … at lower dose” value (C57BL/6 mice) was “weaker” and the blood glucose levels (C57BL/6 mice; 500 mg/kg intraperitoneal) was “significantly increased”.

Reference: patent publication US7737158B2, “Processes for regulating blood glucose in a mammal” (Washington University, priority 2005, dated 2010)
